Laboratory results from patent publication US20220340597A1, “HEXAHYDRO-1H-PYRAZINO[1,2-A]PYRAZINE COMPOUNDS FOR THE TREATMENT OF AUTOIMMUNE DISEASE” (Hoffmann-La Roche Inc., priority 2019, published 2022).

Biological target: T1, human TLR9 (Homo sapiens, UniProt Q9NR96)
T1 construct: host or cells: HEK293 (HEK-Blue hTLR9)
T1 sequence (Q9NR96 26-1032): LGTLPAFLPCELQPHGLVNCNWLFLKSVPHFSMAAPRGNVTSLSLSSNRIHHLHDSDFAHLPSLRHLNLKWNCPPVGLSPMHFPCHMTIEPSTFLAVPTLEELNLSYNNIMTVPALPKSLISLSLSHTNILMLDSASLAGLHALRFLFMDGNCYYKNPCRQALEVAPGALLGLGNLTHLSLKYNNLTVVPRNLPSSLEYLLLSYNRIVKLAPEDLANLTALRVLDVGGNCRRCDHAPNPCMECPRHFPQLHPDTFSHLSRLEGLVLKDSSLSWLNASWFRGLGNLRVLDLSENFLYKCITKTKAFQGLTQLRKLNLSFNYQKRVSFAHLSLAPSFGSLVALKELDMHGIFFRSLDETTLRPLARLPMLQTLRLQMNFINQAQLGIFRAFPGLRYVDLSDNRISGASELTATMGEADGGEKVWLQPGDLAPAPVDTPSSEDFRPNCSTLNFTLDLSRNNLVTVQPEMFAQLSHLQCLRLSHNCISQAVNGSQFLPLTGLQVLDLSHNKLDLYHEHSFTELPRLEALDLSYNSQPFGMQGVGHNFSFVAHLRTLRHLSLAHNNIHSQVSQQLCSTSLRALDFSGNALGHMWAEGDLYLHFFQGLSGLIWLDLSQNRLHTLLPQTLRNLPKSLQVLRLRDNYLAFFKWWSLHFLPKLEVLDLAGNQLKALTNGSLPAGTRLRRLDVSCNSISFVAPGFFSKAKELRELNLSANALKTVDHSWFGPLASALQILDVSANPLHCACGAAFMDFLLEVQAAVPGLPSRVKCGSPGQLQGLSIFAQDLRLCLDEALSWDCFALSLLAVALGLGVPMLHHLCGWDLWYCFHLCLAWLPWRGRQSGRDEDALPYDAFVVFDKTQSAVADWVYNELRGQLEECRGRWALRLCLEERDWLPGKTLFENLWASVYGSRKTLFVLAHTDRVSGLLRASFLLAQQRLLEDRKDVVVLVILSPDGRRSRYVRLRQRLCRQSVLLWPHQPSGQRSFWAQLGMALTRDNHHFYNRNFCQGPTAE
Assay: HEK293-Blue-hTLR-9 cells assay
Format: cell-based
Settings: HEK293-Blue-hTLR9 cells, ODN2006 stimulation, 20 hrs, SEAP reporter; read-out: HEK/hTLR9 IC50

Row | SMILES | IC50
1 | Cc1cc(N2CCN3[C@@H](C2)CN(c2ccc(C#N)c4ncccc24)C[C@H]3C)nc(N2CC(C)(N)C2)n1 [Example 55, 5-[(4R,9aR)-8-[2-(3-amino-3-methyl-azetidin-1-yl)-6-methyl-pyrimidin-4-yl]-4-methyl-3,4,6,7,9,9a-hexahydro-1H-pyrazino[1,2-a]pyrazin-2-yl]quinoline-8-carbonitrile] | 48 nM
2 | C[C@@H]1CN(c2ccc(C#N)c3ncccc23)C[C@@H]2CN(CCc3ccc(N4CCNCC4)cc3)CCN21 [Example 7, 5-[(4R,9aS)-4-methyl-8-[2-(4-piperazin-1-ylphenyl)ethyl]-3,4,6,7,9,9a-hexahydro-1H-pyrazino[1,2-a]pyrazin-2-yl]quinoline-8-carbonitrile] | < 32 nM
3 | [2H]c1ccc2c(N3C[C@@H]4CN(Cc5ccc(N6CCNCC6)nc5)CCN4[C@H](C)C3)ccc(C#N)c2n1 [Example 78, 5-[(4R,9aS)-4-methyl-8-[(6-piperazin-1-yl-3-pyridyl)methyl]-3,4,6,7,9,9a-hexahydro-1H-pyrazino[1,2-a]pyrazin-2-yl]-2-deuterio-quinoline-8-carbonitrile] | < 32 nM
4 | Cc1cc(N2CCNCC2)ncc1N1CCN2CCN(c3ccc(C#N)c4ncccc34)CC2C1 (stereo not shown) [Example 38, 5-[2-(4-methyl-6-piperazin-1-yl-3-pyridyl)-3,4,6,7,9,9a-hexahydro-1H-pyrazino[1,2-a]pyrazin-8-yl]quinoline-8-carbonitrile] | 93 nM
5 | Cc1nc(N2CCNCC2)ccc1CN1CCN2[C@@H](C1)CN(c1ccc(C#N)c3ncccc13)C[C@H]2C [Example 60, 5-[(4R,9aS)-4-methyl-8-[(2-methyl-6-piperazin-1-yl-3-pyridyl)methyl]-3,4,6,7,9,9a-hexahydro-1H-pyrazino[1,2-a]pyrazin-2-yl]quinoline-8-carbonitrile] | 53 nM
6 | CO[C@@H]1CN(c2ccc(CCN3CCN4[C@@H](C3)CN(c3ccc(C#N)c5ncccc35)C[C@H]4C)cn2)C[C@H]1N [Example 12, 5-[(4R,9aS)-8-[2-[6-[(3R,4R)-3-amino-4-methoxy-pyrrolidin-1-yl]-3-pyridyl]ethyl]-4-methyl-3,4,6,7,9,9a-hexahydro-1H-pyrazino[1,2-a]pyrazin-2-yl]quinoline-8-carbonitrile] | 47 nM
7 | C[C@@H]1CN(c2ccc(C#N)c3ncccc23)C[C@@H]2CN(c3ccnc(N4CC(N)C4)c3)CCN21 [Example 41, 5-[(4R,9aS)-8-[2-(3-aminoazetidin-1-yl)-4-pyridyl]-4-methyl-3,4,6,7,9,9a-hexahydro-1H-pyrazino[1,2-a]pyrazin-2-yl]quinoline-8-carbonitrile] | 45 nM
8 | Cc1cc(N2CCN3[C@@H](C2)CN(c2ccc(C#N)c4ncccc24)C[C@H]3C)nc(N2CCNCC2)n1 [Example 31, 5-[(4R,9aR)-4-methyl-8-(6-methyl-2-piperazin-1-yl-pyrimidin-4-yl)-3,4,6,7,9,9a-hexahydro-1H-pyrazino[1,2-a]pyrazin-2-yl]quinoline-8-carbonitrile] | 85 nM
9 | [2H]c1ccc2c(N3C[C@@H]4CN(c5ncc(C(=O)N6CC7(CN(C)C7)C6)cc5C)CCN4[C@@H](C)C3)ccc(C#N)c2n1 [Example 103, 5-[(4S,9aR)-4-methyl-8-[3-methyl-5-(6-methyl-2,6-diazaspiro[3.3]heptane-2-carbonyl)-2-pyridyl]-3,4,6,7,9,9a-hexahydro-1H-pyrazino[1,2-a]pyrazin-2-yl]-2-deuterio-quinoline-8-carbonitrile] | 87 nM
10 | [2H]c1ccc2c(N3C[C@@H]4CN(CCc5ccc(N6C[C@H]7NCCO[C@@H]7C6)nc5)CCN4[C@H](C)C3)ccc(C#N)c2n1 [Example 77, 5-[(4R,9aS)-8-[2-[6-[(4aR,7aR)-3,4,4a,5,7,7a-hexahydro-2H-pyrrolo[3,4-b][1,4]oxazin-6-yl]-3-pyridyl]ethyl]-4-methyl-3,4,6,7,9,9a-hexahydro-1H-pyrazino[1,2-a]pyrazin-2-yl]-2-deuterio-quinoline-8-carbonitrile] | 44 nM
11 | C[C@@H]1CN(c2ccc(C#N)c3ncccc23)C[C@@H]2CN(Cc3ccc(N4CCNCC4)nc3)CCN21 [Example 8, 5-[(4R,9aS)-4-methyl-8-[(6-piperazin-1-yl-3-pyridyl)methyl]-3,4,6,7,9,9a-hexahydro-1H-pyrazino[1,2-a]pyrazin-2-yl]quinoline-8-carbonitrile] | 41 nM
12 | [2H]c1ccc2c(N3C[C@@H]4CN(CCc5ccc(N6CC7(CN(C)C7)C6)nc5)CCN4[C@H](C)C3)ccc(C#N)c2n1 [Example 64, 5-[(4R,9aS)-4-methyl-8-[2-[6-(6-methyl-2,6-diazaspiro[3.3]heptan-2-yl)-3-pyridyl]ethyl]-3,4,6,7,9,9a-hexahydro-1H-pyrazino[1,2-a]pyrazin-2-yl]-2-deuterio-quinoline-8-carbonitrile] | 32 nM
13 | [2H]c1ccc2c(N3C[C@@H]4CN(c5ccc(CCN6C[C@@H](N)[C@@H](F)C6)nc5)CCN4[C@@H](C)C3)ccc(C#N)c2n1 [Example 117, 5-[(4S,9aR)-8-[6-[2-[(3R,4S)-3-amino-4-fluoro-pyrrolidin-1-yl]ethyl]-3-pyridyl]-4-methyl-3,4,6,7,9,9a-hexahydro-1H-pyrazino[1,2-a]pyrazin-2-yl]-2-deuterio-quinoline-8-carbonitrile] | 42 nM
14 | C[C@@H]1CN(c2ccc(C#N)c3ncccc23)C[C@@H]2CN(c3cccc4c3CNC4)CCN21 [Example 9, 5-[(4R,9aS)-8-isoindolin-4-yl-4-methyl-3,4,6,7,9,9a-hexahydro-1H-pyrazino[1,2-a]pyrazin-2-yl]quinoline-8-carbonitrile] | 79 nM
15 | C[C@@H]1CN(c2ccc(C#N)c3ncccc23)C[C@@H]2CN(c3nccc(N4CCNCC4)n3)CCN21 [Example 30, 5-[(4R,9aR)-4-methyl-8-(4-piperazin-1-ylpyrimidin-2-yl)-3,4,6,7,9,9a-hexahydro-1H-pyrazino[1,2-a]pyrazin-2-yl]quinoline-8-carbonitrile] | 72 nM
16 | C[C@@H]1CN(c2ccc(C#N)c3ncccc23)C[C@@H]2CN(Cc3cccc4c3CNCC4)CCN21 [Example 71, 5-[(4R,9aS)-4-methyl-8-(1,2,3,4-tetrahydroisoquinolin-8-ylmethyl)-3,4,6,7,9,9a-hexahydro-1H-pyrazino[1,2-a]pyrazin-2-yl]quinoline-8-carbonitrile] | 79 nM
17 | [2H]c1ccc2c(N3C[C@@H]4CN(c5ccc(CCN6C[C@H](OC)[C@@H](N)C6)cn5)CCN4[C@@H](C)C3)ccc(C#N)c2n1 [Example 122, 5-[(4S,9aR)-8-[5-[2-[(3S,4S)-3-amino-4-methoxy-pyrrolidin-1-yl]ethyl]-2-pyridyl]-4-methyl-3,4,6,7,9,9a-hexahydro-1H-pyrazino[1,2-a]pyrazin-2-yl]-2-deuterio-quinoline-8-carbonitrile] | 51 nM
18 | CO[C@H]1CN(c2ccc(CCN3CCN4[C@@H](C3)CN(c3ccc(C#N)c5ncccc35)C[C@H]4C)cn2)C[C@H]1N [Example 24, 5-[(4R,9aS)-8-[2-[6-[(3R,4S)-3-amino-4-methoxy-pyrrolidin-1-yl]-3-pyridyl]ethyl]-4-methyl-3,4,6,7,9,9a-hexahydro-1H-pyrazino[1,2-a]pyrazin-2-yl]quinoline-8-carbonitrile] | 45 nM
19 | C[C@@H]1CN(c2ccc(C#N)c3ncccc23)C[C@@H]2CN(Cc3ccc(N4CCCNCC4)nc3)CCN21 [Example 15, 5-[(4R,9aS)-8-[[6-(1,4-diazepan-1-yl)-3-pyridyl]methyl]-4-methyl-3,4,6,7,9,9a-hexahydro-JH-pyrazino[1,2-a]pyrazin-2-yl]quinoline-8-carbonitrile] | 41 nM
20 | C[C@@H]1CN(c2ccc(C#N)c3ncccc23)C[C@@H]2CN(Cc3cnc4c(c3)CNCC4)CCN21 [Example 6, 5-[(4R,9aS)-4-methyl-8-(5,6,7,8-tetrahydro-1,6-naphthyridin-3-ylmethyl)-3,4,6,7,9,9a-hexahydro-1H-pyrazino[1,2-a]pyrazin-2-yl]quinoline-8-carbonitrile] | 69 nM
21 | C[C@@H]1CN(c2ccc(C#N)c3ncccc23)C[C@@H]2CN(c3ccnc(N4CCNCC4)c3)CCN21 [Example 32, 5-[(4R,9aS)-4-methyl-8-(2-piperazin-1-yl-4-pyridyl)-3,4,6,7,9,9a-hexahydro-1H-pyrazino[1,2-a]pyrazin-2-yl]quinoline-8-carbonitrile] | 34 nM
22 | Cc1cc(N2CCOC[C@H](N)C2)ncc1N1CCN2CCN(c3ccc(C#N)c4ncccc34)CC2C1 (stereo partly drawn) [Example 46, 5-[2-[6-[(6R)-6-amino-1,4-oxazepan-4-yl]-4-methyl-3-pyridyl]-3,4,6,7,9,9a-hexahydro-1H-pyrazino[1,2-a]pyrazin-8-yl]quinoline-8-carbonitrile] | 78 nM
